Experiment [1] deals with PTEN/AKT pathway in DU145 cells (PTEN competent). The experiment in a line: Western blot analysis of PTEN/AKT pathway in DU145 cells. Type of experiment: cell-based, human. As to conditions: different doses of I3C for 3 Days. The protocol:
FIG. 11B provides an analysis of effects of I3C on PTEN/AKT pathway in DU145 or PC3 cells by western blot analysis. Cells were treated with different doses of I3C for 3 Days, and followed by western blot analysis. Whether targeting WWP1/NEDD4-1, thereby enhancing PTEN dimerization and function, could offer a unique opportunity to treat MYC-driven cancers was investigated. […] As there is no small pharmacological inhibitor currently available to suppress/inhibit WWP1 activity, Indole-3-Carbinol (I3C), a potential WWP1 inhibitor, which suppresses the WWP1 activity through binding to its HECT domain, was used. First, to assess the on-target effects of I3C towards WWP1, Wwp1^−/− MEFs were used. […] Additionally, two independent PTEN stably knocked-down cells were generated. […] Western Blotting and Immunoprecipitation. For western blotting, cells were lysed in RIPA buffer (Boston BioProducts) supplemented with protease (Roche) and phosphatase (Roche) inhibitor. Proteins were separated on NuPAGE 4-12% Bis-Tris gradient gels (Invitrogen), transferred to polyvinylidine difluoride membranes (Immobilon P, Millipore) and the blots were probed with the indicated antibodies. For immunoprecipitation, PC3, 293T and MEF cells were transfected with the indicated expression vectors by using LIPOFECTAMIN 2000 (Life Technologies). 24 hours after transfection, cells were lysed in RIPA buffer with protease (Roche) and phosphatase (Roche) inhibitor. 500 μg of total lysates were pre-cleared for 30 minutes at 4° C., and then immunoprecipitated with anti-Myc (Cell Signaling Technology 9B11, 1:500), or anti-PTEN (Cell Signaling Technology 9559, 1:500) antibody overnight at 4° C. The Protein-A or Protein-G sepharose beads (GE Healthcare) were then added and incubated for another 2 hours. The immunoprecipitates were washed with RIPA buffer three times. In denaturing conditions, standard Laemmli-Buffer with 5% final concentration of β-mercaptoethanol was added to the samples, which were then boiled and separated on NuPAGE 4-12% Bis-Tris gradient gels (Invitrogen). […]
In general terms: In western blotting, separated proteins are transferred to a membrane and probed.

The subject of experiment [2] is DU145 cells. In words: Growth curves, colorimetric MTT assay, DU145 cells. Type of experiment: cell-based, human. The following applies: various doses of I3C for 5 Days. The source says:
FIG. 11C provides growth curves of DU145 (PTEN competent) or PC3 cells (PTEN null) treated with various doses of I3C for 5 Days, and then assayed with colorimetric MTT assay (three experiments). Whether targeting WWP1/NEDD4-1, thereby enhancing PTEN dimerization and function, could offer a unique opportunity to treat MYC-driven cancers was investigated. […] As there is no small pharmacological inhibitor currently available to suppress/inhibit WWP1 activity, Indole-3-Carbinol (I3C), a potential WWP1 inhibitor, which suppresses the WWP1 activity through binding to its HECT domain, was used. First, to assess the on-target effects of I3C towards WWP1, Wwp1^−/− MEFs were used. […] Additionally, two independent PTEN stably knocked-down cells were generated.
For orientation: Tetrazolium dyes change colour on reduction, which living cells bring about.

The target in experiment [3] is WWP1 (Homo sapiens, UniProt Q9H0M0). The experiment in a line: MicroScale Thermophoresis (MST) binding analysis of I3C towards WWP1. The source says:
FIG. 10B provides the MST analysis of I3C towards WWP1. […] When I3C was superimposed onto the covalent inhibitor and WWP1 onto NEDD4-1, a model was generated showing I3C-bound WWP1 with the binding pocket formed by residues F577, L630, Y628, C629, N650, and Y656. […] The experiments of this example next confirmed this hypothesis by MicroScale Thermophoresis (MST) binding analysis.
Background: In MST a laser heats a spot of the sample, and binding alters the fluorescence response.

Experiment [4] deals with Wwp1^+/+ and Wwp1^−/− MEFs. In words: Growth curves of Wwp1+/+ and Wwp1-/- MEFs treated with I3C. The following applies: 100 μM I3C. Type of experiment: cell-based, mouse. As for the experimental part: FIG. 10C provides growth curves of Wwp1^+/+ and Wwp1^−/− MEFs treated with 100 μM I3C. Representative pictures of the cells at Day 3 are shown below. Whether targeting WWP1/NEDD4-1, thereby enhancing PTEN dimerization and function, could offer a unique opportunity to treat MYC-driven cancers was investigated. […] As there is no small pharmacological inhibitor currently available to suppress/inhibit WWP1 activity, Indole-3-Carbinol (I3C), a potential WWP1 inhibitor, which suppresses the WWP1 activity through binding to its HECT domain, was used. First, to assess the on-target effects of I3C towards WWP1, Wwp1^−/− MEFs were used. […] Additionally, two independent PTEN stably knocked-down cells were generated. […] At 8 hours post-transfection, cells were trypsinized, resuspended, and seeded in three separate 12-well plates at a final density of 20,000/well. Starting the following day (d0), one plate per day was washed once with PBS, fixed in 10% formalin solution for 10 minutes at room temperature, and kept in PBS at 4° C. On the last day, all of the wells were stained with crystal violet. After lysis with 10% acetic acid, optical density was read at 595 nm.

In experiment [5] the test system is Hi-Myc prostate spheres. In words: Prostate sphere forming ability of WT or Hi-Myc prostatic epithelial cells. Type of experiment: cell-based, mouse. As to conditions: Hi-Myc spheres at P1 passage, 10 μM I3C for 3 Day (low dose).

Structures are written as SMILES.

Chain of WWP1 (Q9H0M0 whole entry): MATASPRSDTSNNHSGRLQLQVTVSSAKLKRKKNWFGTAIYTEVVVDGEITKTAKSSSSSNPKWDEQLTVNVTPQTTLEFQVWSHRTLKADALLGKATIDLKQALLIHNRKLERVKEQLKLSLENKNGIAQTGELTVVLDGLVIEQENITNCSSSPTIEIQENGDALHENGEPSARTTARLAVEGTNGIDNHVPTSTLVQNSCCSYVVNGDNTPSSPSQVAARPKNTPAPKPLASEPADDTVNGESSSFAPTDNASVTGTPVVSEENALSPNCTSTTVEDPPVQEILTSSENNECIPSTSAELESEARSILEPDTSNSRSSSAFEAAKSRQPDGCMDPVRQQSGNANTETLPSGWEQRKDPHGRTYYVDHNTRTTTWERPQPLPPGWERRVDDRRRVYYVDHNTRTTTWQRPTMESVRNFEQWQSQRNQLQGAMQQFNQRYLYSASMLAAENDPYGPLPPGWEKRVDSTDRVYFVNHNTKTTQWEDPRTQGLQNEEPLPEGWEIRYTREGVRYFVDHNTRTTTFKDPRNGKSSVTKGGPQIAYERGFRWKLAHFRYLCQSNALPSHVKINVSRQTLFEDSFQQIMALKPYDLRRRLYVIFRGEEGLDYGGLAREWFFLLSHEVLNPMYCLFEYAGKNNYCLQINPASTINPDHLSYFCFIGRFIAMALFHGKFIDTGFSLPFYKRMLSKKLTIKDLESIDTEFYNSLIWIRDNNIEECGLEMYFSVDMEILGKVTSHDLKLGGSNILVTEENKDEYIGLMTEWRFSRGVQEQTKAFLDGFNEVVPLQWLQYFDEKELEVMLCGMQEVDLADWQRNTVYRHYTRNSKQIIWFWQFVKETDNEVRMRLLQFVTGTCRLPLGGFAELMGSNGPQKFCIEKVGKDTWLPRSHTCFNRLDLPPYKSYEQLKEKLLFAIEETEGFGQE

With `OCc1c[nH]c2ccccc12` [I3C, indole-3-carbinol], in experiment [1], the AKT activation result is “dose-dependent AKT suppression”, the PTEN protein level entry is on record as “without affecting PTEN protein level” and the apoptosis entry is reported as “concomitant induction of apoptosis”. Also, the cell growth result in experiment [2] is “drastic inhibition of cell growth”. In experiment [3] (MST Kd for WWP1 versus literature Kd for NEDD4-1), the “binding affinity for WWP1 compared to NEDD4-1” value was “significantly stronger binding affinity”. Further, the Kd in experiment [3] (MST binding analysis, read-out: dissociation constant (Kd) of I3C binding to WWP1) is approximately 120 nM. In experiment [4], the “sensitivity of Wwp1−/− cells to I3C treatment compared to Wwp1+/+ cells” value is “more resistant”. For the same molecule, the prostate sphere-forming ability result in experiment [5] is recorded as “drastically suppressed”.

As usually defined, the Kd is the constant that tells how readily two partners part at equilibrium.
